{"source": "patent US12522596B2", "about": "“Compounds as GLP-1R agonists” (Terns Pharmaceuticals, Inc., priority 2021, dated 2026)", "experiment": "Pharmacokinetics in hGLP-1R mice after oral dosing", "format": "in vivo, male C57BL/6J hGLP-1R mouse", "description": "IPGTT (120 min)—PK bleeding: 40 μL blood samples (all treatment groups) were collected from mice under the jaw at IPGTT-120 min after blood glucose measurement into pre-chilled EDTA-2K tubes. Blood samples were processed for plasma by centrifugation at 4° C., 3200×g for 10 min. 15 μL plasma was stored at −80° C. for PK analysis. From 4 mice in Group 7 of the PD cohort, whole brain was collected after blood is harvested at 120 min post dose, rinsed with saline and patted dry and placed into a pre-weighed tube and stored at −80° C. collected for PK analysis.\nPK bleeding group design is described in Table 9.\nPK bleeding: 30 μL blood was collected at 0.25, 0.5, 1, 2, 4, and 8 h. Blood samples were processed for plasma by centrifugation at 4° C., 3200×g for 10 min. 12 μL plasma was collected at −80° C. for further analysis. From 3 mice in Group 7 of the PK cohort, whole brain was collected after blood is harvested at 8 hr post dose, rinsed with saline and patted dry and placed into a pre-weighed tube and stored at −80° C. collected for PK analysis.\nFor plasma: An aliquot of 3 μL sample was protein precipitated with 60 μL internal standard (100 ng/mL Labetalol & 100 ng/ml Dexamethasone & 100 ng/ml Tolbutamide & 100 ng/mL Verapamil & 100 ng/ml Glyburide & 100 ng/ml Celecoxib in ACN) and then the mixture was vortex-mixed for 10 min at 800 rpm and centrifuged for 15 min at 3220×g, 4° C.\nThe linear/log trapezoidal rule was applied in obtaining the PK parameters. Individual plasma concentration values that were below the lower limit of quantitation (LOQ) were excluded from the PK parameter calculation. The nominal dose levels and nominal sampling times were used in the calculation of all pharmacokinetic parameters.", "key": {"[1]": {"details": "hGLP-1R mouse plasma, PO 0.3 mg/kg, individual mice, 0.3 mg/kg"}, "[2]": {"details": "hGLP-1R mouse plasma, PO 0.3 mg/kg, mean"}, "[3]": {"details": "hGLP-1R mouse plasma, PO 1 mg/kg, individual mice, 1 mg/kg"}, "[4]": {"details": "hGLP-1R mouse plasma, PO 1 mg/kg, mean"}, "[5]": {"details": "hGLP-1R mouse plasma, PO 3 mg/kg, individual mice, 3 mg/kg"}, "[6]": {"details": "hGLP-1R mouse plasma, PO 3 mg/kg, mean"}}, "note": "Several values for one entry are separate records, joined by “and”; a condition that tells them apart may be missing. Equal entries are not always repeated. Where two headings read alike, the source gives them in different places. Marks after values point to notes of the source that are not given here.", "data": [{"smiles": "N#Cc1ccc(COc2cccc(C3CCN(Cc4nc5ccc(C(=O)O)cc5n4Cc4cncs4)CC3)n2)c(F)c1", "note": "[Compound 2]", "values": [{"measurement": "higher AUClast than Reference Compound A", "setting": "hGLP-1R mice, PO 0.3 mg/kg", "result": "four-fold"}, {"measurement": "higher Cmax than Reference Compound A", "setting": "hGLP-1R mice, PO 0.3 mg/kg", "result": "three-fold"}, {"measurement": "higher AUClast than Reference Compound A", "setting": "hGLP-1R mice, PO 1.0 mg/kg", "result": "approximately 4.6 fold"}, {"measurement": "higher Cmax than Reference Compound A", "setting": "hGLP-1R mice, PO 1.0 mg/kg", "result": "approximately 5.7 fold"}, {"measurement": "increase in exposure values over a ten-fold increase in dose", "setting": "hGLP-1R mice, PO 0.3 to 3 mg/kg", "result": 22, "unit": "fold"}, {"measurement": "increase of exposure with dose (dose proportionality)", "setting": "hGLP-1R mice, PO, Reference Compound A 0.3-1 mg/kg, Compound 2 0.3-3 mg/kg", "result": "greater than proportional manner"}, {"measurement": "Concentration", "setting": "hGLP-1R mouse plasma collected at 120 min (IPGTT cohort), PO 0.3 mg/kg, individual animals, 0.3 mg/kg", "result": "26.1 ng/mL and 11.5 ng/mL and 15.0 ng/mL and 31.4 ng/mL and 17.3 ng/mL and 17.2 ng/mL and 13.1 ng/mL"}, {"measurement": "Concentration", "setting": "hGLP-1R mouse plasma collected at 120 min (IPGTT cohort), PO 1 mg/kg, individual animals, 1 mg/kg", "result": "61.2 ng/mL and 53.6 ng/mL and 148 ng/mL and 60.4 ng/mL and 60.3 ng/mL and 48.9 ng/mL and 56.3 ng/mL"}, {"measurement": "Concentration", "setting": "hGLP-1R mouse plasma collected at 120 min (IPGTT cohort), PO 3 mg/kg, individual animals, 3 mg/kg", "result": "159 ng/mL and 227 ng/mL and 555 ng/mL and 301 ng/mL and 239 ng/mL and 229 ng/mL and 231 ng/mL"}, {"measurement": "Concentration", "setting": "hGLP-1R mouse plasma, PO 0.3 mg/kg, 0.25 h, individual animals, 0.3 mg/kg", "result": "66.8 ng/mL and 116 ng/mL and 52.2 ng/mL"}, {"measurement": "Concentration", "setting": "hGLP-1R mouse plasma, PO 0.3 mg/kg, 0.5 h, individual animals, 0.3 mg/kg", "result": "60.3 ng/mL and 118 ng/mL"}, {"measurement": "Concentration", "setting": "hGLP-1R mouse plasma, PO 0.3 mg/kg, 1 h, individual animals, 0.3 mg/kg", "result": "49.2 ng/mL and 55.8 ng/mL"}, {"measurement": "Concentration", "setting": "hGLP-1R mouse plasma, PO 0.3 mg/kg, 2 h, individual animals, 0.3 mg/kg", "result": "18.2 ng/mL and 6.53 ng/mL and 7.14 ng/mL"}, {"measurement": "Concentration", "setting": "hGLP-1R mouse plasma, PO 0.3 mg/kg, 4 h, individual animals, 0.3 mg/kg", "result": "7.15 ng/mL and 1.84 ng/mL and 2.23 ng/mL"}, {"measurement": "Concentration", "setting": "hGLP-1R mouse plasma, PO 0.3 mg/kg, 8 h, individual animals, 0.3 mg/kg", "result": "1.64 ng/mL and BQL"}, {"measurement": "AUC0-inf", "setting": "[1]", "result": "90.4 ng·h/mL and 120 ng·h/mL"}, {"measurement": "AUC0-last", "setting": "[1]", "result": "87.0 ng·h/mL and 117 ng·h/mL"}, {"measurement": "AUCExtra", "setting": "[1]", "result": "5.66% and 3.76% and 1.86%"}, {"measurement": "AUMCExtra", "setting": "[1]", "result": "25.0% and 22.4% and 10.0%"}, {"measurement": "Cmax", "setting": "[1]", "result": "66.8 ng/mL and 118 ng/mL"}, {"measurement": "MRT0-inf", "setting": "[1]", "result": "2.49 h and 1.69 h and 0.928 h"}, {"measurement": "MRT0-last", "setting": "[1]", "result": "1.98 h and 1.36 h and 0.851 h"}, {"measurement": "T1/2", "setting": "[1]", "result": "2.08 h and 1.44* h and 0.691* h"}, {"measurement": "Tlast", "setting": "[1]", "result": "8.00 h (2×) and 4.00 h"}, {"measurement": "Tmax", "setting": "[1]", "result": 0.250, "unit": "h"}, {"measurement": "AUCExtra", "setting": "[2]", "result": 3.76, "unit": "%"}, {"measurement": "AUMCExtra", "setting": "[2]", "result": 19.1, "unit": "%"}, {"measurement": "Concentration", "setting": "hGLP-1R mouse plasma, PO 1 mg/kg, 0.25 h, individual animals, 1 mg/kg", "result": "208 ng/mL and 224 ng/mL"}, {"measurement": "Concentration", "setting": "hGLP-1R mouse plasma, PO 1 mg/kg, 0.5 h, individual animals, 1 mg/kg", "result": "256 ng/mL and 265 ng/mL"}, {"measurement": "Concentration", "setting": "hGLP-1R mouse plasma, PO 1 mg/kg, 1 h, individual animals, 1 mg/kg", "result": "183 ng/mL and 156 ng/mL"}, {"measurement": "Concentration", "setting": "hGLP-1R mouse plasma, PO 1 mg/kg, 2 h, individual animals, 1 mg/kg", "result": "77.6 ng/mL and 36.6 ng/mL and 31.7 ng/mL"}, {"measurement": "Concentration", "setting": "hGLP-1R mouse plasma, PO 1 mg/kg, 4 h, individual animals, 1 mg/kg", "result": "8.59 ng/mL and 6.36 ng/mL"}, {"measurement": "Concentration", "setting": "hGLP-1R mouse plasma, PO 1 mg/kg, 8 h, individual animals, 1 mg/kg", "result": "4.90 ng/mL and 6.23 ng/mL and 3.07 ng/mL"}, {"measurement": "Tlast", "setting": "hGLP-1R mouse plasma, PO 1 mg/kg, individual mice", "result": 8.00, "unit": "h"}, {"measurement": "AUC0-inf", "setting": "[3]", "result": "366 ng·h/mL and 326 ng·h/mL"}, {"measurement": "AUC0-last", "setting": "[3]", "result": "352 ng·h/mL and 320 ng·h/mL"}, {"measurement": "AUCExtra", "setting": "[3]", "result": "1.78% and 3.97% and 1.84%"}, {"measurement": "AUMCExtra", "setting": "[3]", "result": "11.9% and 22.6% and 12.9%"}, {"measurement": "Cmax", "setting": "[3]", "result": "256 ng/mL and 265 ng/mL"}, {"measurement": "MRT0-inf", "setting": "[3]", "result": "1.81 h and 1.42 h"}, {"measurement": "MRT0-last", "setting": "[3]", "result": "1.46 h and 1.26 h"}, {"measurement": "T1/2", "setting": "[3]", "result": "1.62* h and 1.36* h"}, {"measurement": "AUCExtra", "setting": "[4]", "result": 2.53, "unit": "%"}, {"measurement": "AUMCExtra", "setting": "[4]", "result": 15.8, "unit": "%"}, {"measurement": "Tlast", "setting": "[4]", "result": 8.00, "unit": "h"}, {"measurement": "Concentration", "setting": "hGLP-1R mouse plasma, PO 3 mg/kg, 0.25 h, individual animals, 3 mg/kg", "result": "823 ng/mL and 1030 ng/mL and 2870 ng/mL"}, {"measurement": "Concentration", "setting": "hGLP-1R mouse plasma, PO 3 mg/kg, 0.5 h, individual animals, 3 mg/kg", "result": "982 ng/mL and 937 ng/mL and 3450 ng/mL"}, {"measurement": "Concentration", "setting": "hGLP-1R mouse plasma, PO 3 mg/kg, 1 h, individual animals, 3 mg/kg", "result": "592 ng/mL and 387 ng/mL and 1990 ng/mL"}, {"measurement": "Concentration", "setting": "hGLP-1R mouse plasma, PO 3 mg/kg, 2 h, individual animals, 3 mg/kg", "result": "157 ng/mL and 100 ng/mL and 655 ng/mL"}, {"measurement": "Concentration", "setting": "hGLP-1R mouse plasma, PO 3 mg/kg, 4 h, individual animals, 3 mg/kg", "result": "48.1 ng/mL and 35.1 ng/mL and 170 ng/mL"}, {"measurement": "Tlast", "setting": "hGLP-1R mouse plasma, PO 3 mg/kg, individual mice", "result": 8.00, "unit": "h"}, {"measurement": "AUC0-inf", "setting": "[5]", "result": "1923 ng·h/mL and 1229 ng·h/mL and 4707 ng·h/mL"}, {"measurement": "AUC0-last", "setting": "[5]", "result": "1497 ng·h/mL and 1154 ng·h/mL and 4673 ng·h/mL"}, {"measurement": "AUCExtra", "setting": "[5]", "result": "22.2% and 6.12% and 0.710%"}, {"measurement": "AUMCExtra", "setting": "[5]", "result": "63.8% and 30.6% and 4.74%"}, {"measurement": "Cmax", "setting": "[5]", "result": "982 ng/mL and 1030 ng/mL and 3450 ng/mL"}, {"measurement": "MRT0-inf", "setting": "[5]", "result": "4.39 h and 2.08 h and 1.46 h"}, {"measurement": "MRT0-last", "setting": "[5]", "result": 1.54, "unit": "h"}, {"measurement": "T1/2", "setting": "[5]", "result": "3.21* h and 1.68* h and 1.19 h"}, {"measurement": "Tmax", "setting": "[5]", "result": 0.250, "unit": "h"}, {"measurement": "AUCExtra", "setting": "[6]", "result": 9.68, "unit": "%"}, {"measurement": "AUMCExtra", "setting": "[6]", "result": 33.0, "unit": "%"}, {"measurement": "Tlast", "setting": "[6]", "result": 8.00, "unit": "h"}, {"measurement": "AUC(0-t)", "setting": "male, C57BL/6J hGLP-1R, mouse, plasma, po, 0.3 mg/kg, hGLP-1R mice, total, PO 0.3 mg/kg, read-out: AUClast Mean", "result": 107, "unit": "ng·h/mL"}, {"measurement": "Cmax", "setting": "male, C57BL/6J hGLP-1R, mouse, plasma, po, 0.3 mg/kg, hGLP-1R mice, total, PO 0.3 mg/kg, read-out: Cmax Mean", "result": 82.7, "unit": "ng/mL"}, {"measurement": "half-life", "setting": "male, C57BL/6J hGLP-1R, mouse, plasma, po, 0.3 mg/kg, hGLP-1R mice, total, PO 0.3 mg/kg, read-out: T1/2 (converted)", "result": 1.4, "unit": "h"}, {"measurement": "Tmax", "setting": "male, C57BL/6J hGLP-1R, mouse, plasma, po, 0.3 mg/kg, hGLP-1R mice, total, PO 0.3 mg/kg, read-out: Tmax Median", "result": 0.5, "unit": "h"}, {"measurement": "concentration at 120 min", "setting": "male, C57BL/6J hGLP-1R, mouse, plasma, po, 0.3 mg/kg, hGLP-1R mouse plasma collected at 120 min (IPGTT cohort), PO 0.3 mg/kg, read-out: Mean Concentration", "result": 18.8, "unit": "ng/mL"}, {"measurement": "concentration at 0.25 h", "setting": "male, C57BL/6J hGLP-1R, mouse, plasma, po, 0.3 mg/kg, hGLP-1R mouse plasma, PO 0.3 mg/kg, 0.25 h, read-out: Mean Concentration", "result": 78.3, "unit": "ng/mL"}, {"measurement": "concentration at 0.5 h", "setting": "male, C57BL/6J hGLP-1R, mouse, plasma, po, 0.3 mg/kg, hGLP-1R mouse plasma, PO 0.3 mg/kg, 0.5 h, individual animals, read-out: Concentration", "result": 63.4, "unit": "ng/mL"}]}]}
